Data published in patent EP0406111A1, “Substituted arylamines and heteroarylamines, process for their preparation and pharmaceutical composition containing them” (SOCIETE DE CONSEILS DE […] D'APPLICATIONS SCIENTIFIQUES …, priority 1989, dated 1991).

How the values were obtained:
[1] = test system: fixation de la (³H)BTCP dans le striatum de souris; assay: Inhibition of in vivo (3H)BTCP binding in mouse striatum (Example 40); conditions: mice, compound s.c. 60 min before i.v. (3H)BTCP, sacrifice 30 min later
Description: Exemple 40 : Etude de l'inhibition de la fixation "in vivo" de (³H)BTCP chez la souris.
Pour cette étude, on utilise des souris Swiss mâles pesant 20 à 25g. Les souris sont réparties par groupes et alimentées avec de la nourriture standard de laboratoire et de l'eau à volonté, en réalisant des cycles de lumière artificielle de 12h consécutives à partir de 7h du matin. Les expériences sont effectuées entre 10h et 18h. Les mesures de la fixation "in vivo" de la (³H)BTCP sont effectuées comme il a été décrit par Maurice et al, 1989, de la façon suivante.
On injecte aux souris par voie sous-cutanée le composé à tester dans 100µl de solution physiologique pour les composés n^o 4 et n^o 16 et dans 100µl d'un mélange 1:1 en volume de solution physiologique et de DMSO pour le composé n^o 26. 60 min après cette injection on leur injecte dans une veine de la queue (³H)BTCP à une dose de 5µCi dans 100µl d'un mélange de solution physiologique et d'éthanol à 5%. 30min après cette injection, on sacrifie les souris. Les striata de cerveaux sont rapidement disséqués et homogénéisés avec un ultra turrax (IKA Verk) réglage maximum pendant 20s dans 80 volumes d'un tampon Na₂HPO₄, HCl 50mM, pH=7,4 à 4°C. Deux aliquots de […] sont filtrées sous pression réduite sur des filtres GF/B (Whatman) prétraités par de la polyéthylène imine à 0,5% (Aldrich). On rince ensuite les filtres deux fois avec 5ml d'un tampon NaCl 50mM, tris-HCl 10mM, pH=7,4 à 4°C. La radioactivité fixée qui reste sur les filtres, et la radioactivité totale, obtenue à partir des deux aliquots de 200µl d'homogénats sont mesurées dans des flacons de 6ml contenant 3,5ml de ACS (Amersham) avec un spectrophotomètre à scintillation liquide Excel 1410 (LKB). La fixation non spécifique est définie comme la radioactivité présente dans chaque région après prétraitement des animaux avec de la BTCP (40mg/kg dans 100µl de solution saline), injectée par voie sous-cutanée, 60min avant l'injection de (³H)BTCP. Les résultats sont exprimés sous la forme des rapports radioactivité fixée / radioactivité libre (B/F) dans lesquels le taux de (³H)BTCP libre est estimé en soustrayant la radioactivité fixée de la radioactivité totale.

[2] = biological target: recapture de la noradrénaline (Rattus norvegicus, UniProt Q63380); assay: Inhibition of (3H)NA reuptake in primary cultured neurons (Example 39); type: cell-based; conditions: for Recapture de (³H)NA nH (nombre de Hill): cultured neurons from rat embryos
recapture de la noradrénaline, sequence (Q63380 1-617): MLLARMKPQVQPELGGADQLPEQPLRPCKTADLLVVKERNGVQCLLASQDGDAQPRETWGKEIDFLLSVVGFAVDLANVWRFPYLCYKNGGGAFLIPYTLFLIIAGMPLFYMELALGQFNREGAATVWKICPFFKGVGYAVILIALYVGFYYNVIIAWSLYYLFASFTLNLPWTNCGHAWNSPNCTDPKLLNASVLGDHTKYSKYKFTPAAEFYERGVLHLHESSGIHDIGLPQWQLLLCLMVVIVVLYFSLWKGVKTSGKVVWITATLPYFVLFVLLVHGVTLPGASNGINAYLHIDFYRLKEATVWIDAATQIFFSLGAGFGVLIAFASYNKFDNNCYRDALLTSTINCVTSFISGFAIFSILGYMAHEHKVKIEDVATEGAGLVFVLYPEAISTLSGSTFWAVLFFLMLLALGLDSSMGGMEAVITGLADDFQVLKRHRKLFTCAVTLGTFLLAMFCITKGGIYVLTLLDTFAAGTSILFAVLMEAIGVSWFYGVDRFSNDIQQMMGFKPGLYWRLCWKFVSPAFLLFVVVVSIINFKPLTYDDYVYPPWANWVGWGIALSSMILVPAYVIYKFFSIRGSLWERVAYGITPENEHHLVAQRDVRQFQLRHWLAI
Source text: Exemple 39 : Etude de l'inhibition de la recapture de la dopamine et de la noradrénaline sur des neurones en culture.
a) Cultures primaires de neurones.
La substance noire, structure riche en cellules dopaminergiques, ou le locus coeruleus, contenant les corps cellulaires noradrénergiques, sont disséqués à partir d'embryons de rats de 14 jours, âge auquel les cellules ont terminé leur mitose. Les cellules sont dissociées mécaniquement dans un milieu sans calcium ni magnésium.
L'ensemencement est réalisé dans des puits prétraités avec de la D-polylysine, à une densité de 150 000 cellules/puits, dans 400µl de milieu de culture composé de 70% de M.E.M.; 25% de Hanks; 5% de Nu-serum décomplémenté; plus 3% de D-glucose (1/20).
Le milieu de culture est renouvelé au tiers tous les trois jours, jusqu'à 9 jours de développement "in vitro", âge auquel les cellules paraissent matures. A cet âge, la culture ne présente pas encore de cellule gliales.
b) Test d'inhibition de la recapture de la dopamine et de la noradrénaline.
On pré-incube les cellules obtenues en a) pendand 15min, à la température ambiante, avec 40µl d'un tampon constitué par le Ringer Phosphate-disodique 5 mM pH=7,6 dont la composition en concentrations finales est la suivante : NaCl 120mM; CaCl₂ 2,6 mM; MgCl₂ 1,3 mM; KCl 5mM; D-glucose 3 mM; Na₂HPO₄5mM.
On incube ensuite pendant 10min à 37°C avec le même tampon en présence de (³H)Da ou de (³H)NA à une concentration finale 10⁻⁸M et une dilution isotopique de 1/5, et de concentrations croissantes en composé à tester dans un volume final de 400µl.
On rince ensuite trois fois rapidement avec 750µl du même tampon à 4°C, ce qui correspond à une durée totale de 10 secondes.
On récupère alors les cellules dans 2 fois 500µl de NaOH 0,5N et on détermine leur radioactivité par comptage avec 4ml de scintillant et 50µl d'acide acétique glacial.
Avant les rinçages, on a prélevé un aliquote de 100µl du milieu d'incubation et on a déterminé la radioactivité libre sur celui-ci par comptage avec 5ml de scintillant. […]

SMILES	ID₅₀ (mg/kg) [1]	Recapture de la noradrénaline, result in words ([2]; cultured neurons)	Recapture de (³H)NA nH (nombre de Hill) [2]
c1ccc2sc(C3(N4CCCCC4)CCCCC3)cc2c1 [BTCP, (benzo(b)thiophényl-2)-1 (pipéridino -1) cyclohexane, reference compound]	4,98 mg/kg	–	–
CC1CC(C)CN(C2(c3cc4ccccc4s3)CCCCC2)C1 (stereo not drawn) [composé n^o 6, (benzo(b)thiophényl-2)-1 ((diméthyl-3,5 pipéridino)-1)-1 cyclohexane]	–	inhibiteur très puissant	1,2
OC1CCN(C2(c3cc4ccccc4s3)CCCCC2)CC1 [composé 26, (benzo(b)thiophényl-2)-1( (ol-4-pipéridino)-1)-1 cyclohexane]	0,56 mg/kg	–	–
c1ccc2oc(C3(N4CCCCC4)CCCCC3)cc2c1 [composé n^o 4, (benzo(b)furannyl-2)-1 (pipéridino-1)-1 cyclohexane]	7,78 mg/kg	–	–
CCCN(CCC)C1(c2cc3ccccc3s2)CCCCC1 [composé no 3, (benzo(b)thiophényl-2)-1 (dipropylamino-1)-1 cyclohexane]	–	–	0,85
